This data set is described as follows: mn = molality of the nth substance listed, in mol/kg. The following applies: 298.15 K, 101 kPa, Liquid, Vibrating tube method.

Numbers after ± are expanded uncertainties.

Turning to `ClCCl` [dichloromethane] + CCOS(=O)(=O)[O-].CCn1cc[n+](C)c1, the mass density (usually the mass of a sample divided by its volume) runs as follows: (m2 = 0.003931) 1316.39 ± 10 kg/m3; (m2 = 0.1352) 1316.68 ± 10 kg/m3.

Values taken from the NIST ThermoML archive (doi:10.1021/je101130e).
